Assay results: US20060014728A1, “Hormone replacement therapy” (priority 1996, published 2006)
Where “and” joins values, the source holds several entries; their conditions need not be identical. Identical values can stand only once.

Assays:
endometrium = experiment: Antiproliferative action of antiprogestins on the endometrium in estrogen-replaced, ovariectomized cynomolgus monkeys (Example 2); format: in vivo; conditions: biopsy day 30; 1 or 3 mg/kg im daily days 1-30; estradiol capsule sc
[1] = test system: ovariectomized cynomolgus monkeys; experiment: Withdrawal menses after sequential estradiol and progesterone therapy without versus with antiprogestin treatment (menstrual challenges A and B); format: in vivo
Source text: 30 ovariecomized cynomolgus monkeys were studied intensively over 12 weeks. Primates in Group I (N=5 each) received only the vehicles used for hormone delivery in Groups II-VI. Monkeys in Group II received estradiol at physiologic levels throughout (days 1 to 81) via a sc silastic implant, as well as two separate courses of progesterone at physiologic levels via a sc silastic implant (days 28 to 35 and 67 to 74). Groups III-VI received the same sequential regimen of estradiol and progesterone as Group II, but in addition were given an antiprogestin im on alternate days 39 to 67: Group III, mifepristone (RU 486) 2.0 mg/kg; Group IV, mifepristone 20.0 mg/kg; Group V, onapristone (ZK 299) 2.0 mg/kg; and Group VI, onapristone 20.0 mg/kg. The two menstrual challenge tests (A and B) were defined as the six days immediately after withdrawal of progesterone treatment (A on days 36 to 41 and B on days 75 to 80).
The protocol thus provided two periods of estrogen-only HRT treatment, one without antiprogestin followed by another with antiprogestin. Each of these two periods was followed by short-term progesterone treatment which provided a measurement of the effects on bleeding of the antiprogestin during the estrogen HRT treatment.
(§1) The monkeys were randomly distributed into six treatment group preparations (n=5 each). Group I (control) was treated with the vehicle only. One empty silastic implant was placed sc surgically from study day 1 to 81; this controlled for estradiol treatment. Another empty silastic implant was inserted sc from days 28 to 35 and from days 67 to 74 and controlled for progesterone treatment. One ml of the antiprogestin vehicle was administered im on alternate days (39 to 67). Group II received continuous estradiol progesterone at two intervals but no antiprogestins. This experimental design allowed two menstrual challenges (A and B). As described below (Groups III-VI), menstrual challenge A was without antiprogestin exposure; whereas B was with antiprogestin treatment. Group III monkeys received the sequential estradiol and progesterone regimens as in Group II but also RU 486 at 2.0 mg/kg on alternate days for four weeks (days 39 to 67). For Group IV, the same treatment occurred, except that the RU 486 dose was elevated by ten-fold (20.0 mg/kg). Similarly, primates in Groups V and VI were injected with onapristone at 2.0 and 20.0 mg/kg, respectively.
(§2) In all treatment groups, observations for menstrual bleeding were made daily by visual inspection of the vaginal labia. Femoral blood collections (4.0 ml) were taken under ketamine-induced anesthesia (10 mg/kg) on alternate days and endometrial biopsies (by hysterotomy) were obtained on days 53 and 70. Endometrial biopsies were placed in formalin […] and processed for histologic evaluation by a clinical pathologist. Thickness of the endometrial tissues was measured with an ocular micrometer to determine the depth of the endometrium at its point of maximal thickness from the myometrial unction to the epithelial layer at the lumenal surface. Endometrial status was evaluated qualitatively and classified according to the following score: atrophic:O; early proliferative: 1; late proliferative:2; interval:3; early secretory:4; and late secretory:5.

endometrial tissues = experiment: Histologic evaluation of primate endometrial tissues on days 53 and 70 (Example 1); format: in vivo, cynomolgus monkeys; conditions: for Endometrial Score: score 0-atrophic to 5-secretory; for Thickness (mm): mean ± SD; for thicknesses of endometrial tissues: day 70, Groups III-VI (2.0 and 20.0 mg/kg together)
Source text: Additional data were collected by measurements of estradiol, progesterone and cortisol, as well as each antiprogestin in serum drawn on alternate days (1 to 81). Also, endometrial response was examined histologically in biopsy specimens collected on days 53 and 70, both to measure thickness of endometrial tissue (i.e., anti-proliferative response) and to assess the endometrial tissue qualitatively (atrophic, proliferative, or secretory, etc.).
as §1, §2

[2] = 20.0 mg/kg im on alternate days 39-67, with estradiol + progesterone
[3] = Menstrual Challenge A, withdrawal interval days 36-41, antiprogestins: none (baseline before antiprogestin), groups later given 2 mg/kg
[4] = Menstrual Challenge A, withdrawal interval days 36-41, antiprogestins: none (baseline before antiprogestin), groups later given 20 mg/kg
[5] = Menstrual Challenge B, withdrawal interval days 75-80, estradiol + progesterone + antiprogestin 2 mg/kg im on alternate days 39-67
[6] = Menstrual Challenge B, withdrawal interval days 75-80, estradiol + progesterone + antiprogestin 20 mg/kg im on alternate days 39-67
[7] = Day 53, antiprogestin 2.0 mg/kg
[8] = Day 53, antiprogestin 20.0 mg/kg
[9] = Day 53, estradiol + progesterone + antiprogestin 2.0 mg/kg im alternate days 39-67
[10] = Day 53, estradiol + progesterone + antiprogestin 20.0 mg/kg im alternate days 39-67
[11] = Day 70, antiprogestin 2.0 mg/kg
[12] = Day 70, antiprogestin 20.0 mg/kg
[13] = Day 70, estradiol + progesterone + antiprogestin 2.0 mg/kg im alternate days 39-67
[14] = Day 70, estradiol + progesterone + antiprogestin 20.0 mg/kg im alternate days 39-67

Compound	classification of endometrial specimens (developmental stage) (endometrium)	bleeding outcome during menstrual challenge B ([1]; 2.0 mg/kg im on alternate days 39-67, with estradiol + progesterone)	bleeding outcome during menstrual challenge B [1, 2]	Incidence of Bleeding, Days [1, 3]	Incidence of Bleeding, Days [1, 4]	Incidence of Bleeding, Days [1, 5]	Incidence of Bleeding, Days [1, 6]	Endometrial Score (endometrial tissues; [7])	Endometrial Score (endometrial tissues; [8])	Thickness (mm) (endometrial tissues; [9])	Thickness (mm) (endometrial tissues; [10])	Endometrial Score (endometrial tissues; [11])	Endometrial Score (endometrial tissues; [12])	Thickness (mm) (endometrial tissues; [13])	Thickness (mm) (endometrial tissues; [14])	thicknesses of endometrial tissues (endometrial tissues)	Incidence of Bleeding, Days ([1]; Menstrual Challenge B, withdrawal interval days 75-80, estradiol + progesterone + antiprogestin 2 mg/kg im on alternate days 39-67, listed as ONA)	histological evaluation of endometrium (endometrial tissues; Group V, 2.0 mg/kg)
C[C@]12C[C@@H]3c4ccc(-c5ccc(C#N)cc5)cc4C[C@]45CCC(=O)C=C4CC[C@@H]([C@H]35)[C@@H]1CC[C@@]2(O)/C=C/CO [ZK136798]	interval																	
CC#C[C@]1(O)CC[C@H]2[C@@H]3CCC4=CC(=O)CCC4=C3[C@@H](c3ccc(N(C)C)cc3)C[C@@]21C [mifepristone, 11β-(4-dimethylaminophenyl)-17β-hydroxy-1-propinyl-4,9estradien-3-one]	proliferative	complete amenorrhea	complete amenorrhea	13/30	12/30	0/30	0/30	3.6	3.8	2.5 ± 0.2	2.2 ± 0.2	2.4	2.8	1.8 ± 0.2 mm	1.3 ± 0.1	approximately 1.5 mm		
CN(C)c1ccc([C@H]2C[C@]3(C)[C@@H](CC[C@]3(O)CCCO)[C@@H]3CCC4=CC(=O)CCC4=C32)cc1 [onapristone, 1β-(4-dimethylaminophenyl)-17-hydroxy-17β-(3-hydroxypropyl)-13-methyl-4,9-gonadien-3-one]	interval		complete amenorrhea	9/30	9/30	three	0/30	3.8	3.6	2.6 ± 0.2	2.2 ± 0.1	4.0	3.0	1.6 mm and 1.6 ± 0.1 mm	1.7 ± 0.1	approximately 1.5 mm	3/30	well-developed secretory glands
